Measured values: patent EP2767275A1, “Nortriptyline, haloperidol or prochlorperazine edisylate for use in the treatment of tuberculosis as well as two screening methods” (priority 2013, dated 2014)
Read-outs that look alike come from different tables or passages of the source.

Assays:
[1] = test system: M. bovis BCG-GFP; format: cell-based; settings: for pattern-specific score (PSS): 10µM, 48 hr
[2] = test system: HeLa cells stably expressing mRFP-GFP-LC3; format: cell-based, human; settings: for mRFP to GFP co-localisation: 2 hr, N and PE 10µM, Chloroquine 25 µM, BafilomycinA1 100nM; for co-localisation of mRFP and GFP over time: different periods of time
Protocol: Second, an established assay was used for measuring autophagic flux based on a tandem mRFP-GFP-LC3 construct (Kimura et al., 2007). Since GFP is quenched in the acidic environment of autophagolysosomes whereas mRFP remains stable, agents blocking autophagy flux display higher colocalization of mRFP and GFP compared to those inducing autophagy. HeLa cells stably expressing mRFP-GFP-LC3 (Settembre et al., 2011) were treated with the compounds and the co-localization between mRFP and GFP was quantified. […] Similar results were obtained for the co-localisation of LC3-GFP with LBPA in HeLa-LC3-GFP cells (Figure 12D).
The increased acidification by PE is in apparent contradiction with the inhibition of autophagic flux. To solve this discrepancy, HeLa cells stably expressing mRFP-GFP- -LC3 were treated with the compounds for different periods of time.

[3] = test system: M. bovis BCG-GFP; format: cell-based; settings: 10µM, 4 days plus 24hr with alamar blue
[4] = test system: HeLa cells; experiment: High content autophagy assay (LC3 immunostaining); format: cell-based, human; settings: 10µM (Rapamycin 5.5 µM), 4 hr
Protocol: HeLa cells were treated with the compounds at a final concentration of 10µM, incubated for 4 hr, fixed with 3.7% PFA and immunostained with anti-LC3 antibody (clone PM036, MBL labs). Cells were counterstained by DAPI and Cell Mask Blue, imaged and analyzed as described above.
Autophagy is a key process regulated by mTOR (Laplante and Sabatini, 2012) and a known mediator of intracellular mycobacterial survival (Gutierrez et al., 2004; Kumar et al., 2010). The integration approach predicted that compounds from E1, but not E2, modulate autophagy. To test it, HeLa cells were treated with the compounds, immunostained for the autophagosome marker LC3 and multiple parameters reporting diverse facets of autophagosomes were extracted (Table 3). […] Of the three compounds validated in intracellular mycobacterial killing, Nortriptyline and PE belong to sub-cluster E1 whereas Haloperidol belongs to E2.

[5] = test system: M. bovis BCG-GFP; format: cell-based
[6] = test system: HeLa BAC GFP-Rab5c; experiment: Cell-based LDL trafficking assay; design: species or system human
[7] = test system: A431 cells stably expressing GFP-Rab5; experiment: Live cell imaging of endosome motility; format: cell-based; settings: 10µM, 2 hr
[8] = test system: HeLa BAC LC3-GFP; format: cell-based, human
[9] = test system: LC3; settings: for LC3-II band: 10 µM; for additive effects of BafilomycinA1 on LC3-II band: 10 µM with BafilomycinA1 100nM
[10] = test system: M. bovis BCG-GFP; format: cell-based; remark: listed apart in the source

Compound: Cn1cnc(N)c2ncnc1-2 [3-MA, 3-Methyl Adenine]
- effect of 3-MA on action of Nortriptyline on mycobacterial survival [1]: reverted the effect of Nortriptyline on mycobacterial survival

Compound: CC1(C)CC2C1CCC1(C)OC2(C)CCC1O (centres unmarked) [3;7-EPOXYCARYOPHYLLAN-6-OL]
- pattern-specific score (PSS) [1]: 0.7194

Compound: COc1cc2c(cc1OC)C1(O)C(=O)c3ccc(O)c(C(=O)O)c3OC1CO2 (centres unmarked) [12A-HYDROXY-9-DEMETHYLMUNDUSERONE-8-CARBOXYLIC ACID]
- pattern-specific score (PSS) [1]: 0.8387

Compound: CO/C1=C\C(C)=C\[C@@H](C)[C@@H](O)[C@@H](C)C/C(C)=C/C=C/[C@H](OC)[C@@H]([C@@H](C)[C@@H](O)[C@H](C)[C@@]2(O)C[C@@H](O)[C@H](C)[C@@H](C(C)C)O2)OC1=O [BafilomycinA1]
- mRFP to GFP co-localisation [2]: higher co-localisation
- co-localisation of mRFP and GFP over time [2]: increased over time

Compound: CO/N=C(\C(=O)N[C@@H]1C(=O)N2C(C(=O)OCOC(=O)C(C)(C)C)=C(/C=C\c3scnc3C)CS[C@H]12)c1csc(N)n1 [CEFDITORIN PIVOXIL]
- pattern-specific score (PSS) [1]: 0.8626

Compound: CCN(CC)CCCC(C)Nc1ccnc2cc(Cl)ccc12 (centres unmarked) [Chloroquine]
- mRFP to GFP co-localisation [2]: higher co-localisation
- co-localisation of mRFP and GFP over time [2]: increased over time

Compound: NC(C(=O)O)C(O)C(=O)O [D;L-THREO-3-HYDROXYASPARTIC ACID]
- pattern-specific score (PSS) [1]: 0.8004

Compound: OC[C@@H](O)[C@@H](OC1O[C@H](CO)[C@@H](O)[C@H](O)[C@H]1O)[C@H](O)[C@@H](O)CO (some centres unmarked) [GLUCITOL-4-GUCOPYANOSIDE]
- pattern-specific score (PSS) [1]: 0.8836

Compound: O=S(=O)(NCCNC/C=C/c1ccc(Br)cc1)c1cccc2cnccc12 [H89]
- pattern-specific score (PSS) [1]: 0.9636

Compound: O=c1cc(-c2cc(O)c(O)c(O)c2)oc2cc(O)cc(O)c12 [HIERACIN]
- pattern-specific score (PSS) [1]: 0.3164

Compound: O=C(CCCN1CCC(O)(c2ccc(Cl)cc2)CC1)c1ccc(F)cc1 [Haloperidol, 4-[4-(4-chlorophenyl)-4-hydroxy-1-piperidyl]-1-(4-fluorophenyl)-butan-1-one]
- effect in the alamar blue screen [3]: lack of effect
- effect on autophagy [4]: did not
- bacteriostatic activity on M. bovis BCG-GFP at neutral and acidic pH ([5]; 10 µM): did not show bacteriostatic activity
- intensity of LDL in early and late endosomes ([6]; 10µM, LDL pulse for different times): significantly increased the intensity of LDL in late, but not early endosomes
- size, number and position of LDL-containing late endosomes ([6]; 10 µM, late, but not early endosomes): larger, more numerous and closer to the cell centre
- phenotype (phenotypic profile) in mycobacteria high content screen [1]: reduced bacterial intensity, fewer bacteria and infected cells
- mean square displacement of endosomes [7]: long, but not short, time-scale movements of GFP-Rab5 endosomes were significantly accelerated
- motility of early endosomes [7]: much higher motility of early endosomes harboring high levels of Rab5

Compound: CN1CCc2c(c3ccccc3n2Cc2ccccc2)C1.CN1CCc2c(c3ccccc3n2Cc2ccccc2)C1.O=S(=O)(O)c1cccc2c(S(=O)(=O)O)cccc12 [MEBHYDROLIN NAPHTHALENESULFONATE]
- pattern-specific score (PSS) [1]: 0.9999

Compound: CSc1ccc2c(c1)C(N1CCN(C)CC1)Cc1ccccc1S2.O=C(O)/C=C\C(=O)O (centres unmarked) [METHIOTHEPIN MALEATE]
- pattern-specific score (PSS) [1]: 0.9941

Compound: CC([C@H](O)c1ccccc1)N(C)C (stereo partly drawn) [N-METHYL (-)EPHEDRINE]
- pattern-specific score (PSS) [1]: 0.8936

Compound: CN(C)c1nc(N)c(C(=O)N=C(N)N)nc1Cl [N;N-DIMETHYLAMILORIDE]
- pattern-specific score (PSS) [1]: 0.5976

Compound: CNCCC=C1c2ccccc2CCc2ccccc21 [Nortriptyline, 3-(10,11-dihydro-5H-dibenzo[a,d]cyclohepten-5-ylidene)-N-methyl-1-propanamine]
- effect in the alamar blue screen [3]: lack of effect
- additive effect with BafilomycinA1 and Chloroquine in increasing LC3-GFP vesicles [8]: had an additive effect
- LC3-II band [9]: significant increase in the LC3-II band
- additive effects of BafilomycinA1 on LC3-II band [9]: additive effects of BafilomycinA1 were seen
- effect on autophagy [4]: strong effect on autophagy
- bacteriostatic activity on M. bovis BCG-GFP at neutral and acidic pH [5]: did not show bacteriostatic activity
- mRFP to GFP co-localisation [2]: low mRFP to GFP co-localisation
- phenotype (phenotypic profile) in mycobacteria high content screen [1]: reduced bacterial intensity, fewer bacteria and infected cells
- synergy with IFN-γ on mycobacterial survival [10]: synergized strongly with IFN-γ

Compound: CN1CCN(CCCN2c3ccccc3Sc3ccc(Cl)cc32)CC1 [Prochlorperazine edisylate, 2-chloro-10-[3-(4-methyl-1-piperazinyl)propyl]-10H-phenothiazine]
- effect in the alamar blue screen [3]: lack of effect
- additive effect with BafilomycinA1 and Chloroquine in increasing LC3-GFP vesicles ([8]; 10 µM, 4 hours, Chloroquine 25 µM, BafilomycinA1 100nM): not
- LC3-II band [9]: significant increase in the LC3-II band
- additive effects of BafilomycinA1 on LC3-II band [9]: not
- effect on autophagy [4]: strong effect on autophagy
- bacteriostatic activity on M. bovis BCG-GFP at neutral and acidic pH ([5]; 10 µM): did not show bacteriostatic activity
- mRFP to GFP co-localisation [2]: higher co-localisation
- co-localisation of mRFP and GFP over time [2]: increased within the first hr but then progressively decreased
- phenotype (phenotypic profile) in mycobacteria high content screen [1]: reduced bacterial intensity, fewer bacteria and infected cells
- synergy with IFN-γ on mycobacterial survival [10]: much weaker effect

Compound: C[C@@H]1CC[C@@]2(OC1)O[C@H]1C[C@H]3[C@@H]4CC[C@@H]5C[C@@H](O)CC[C@]5(C)[C@H]4CC[C@]3(C)[C@H]1[C@@H]2C [SMILAGENIN]
- pattern-specific score (PSS) [1]: 0.7198

Compound: COc1cc2c3cc1Oc1cc(ccc1O)C[C@@H]1c4c(cc(OC)c(O)c4Oc4ccc(cc4)C[C@@H]3N(C)CC2)CC[N+]1(C)C.Cl.O.O.O.O.O.[Cl-] [TUBOCURARINE CHLORIDE]
- pattern-specific score (PSS) [1]: 0.7944

Compound: TOTAROL ACETATE
- pattern-specific score (PSS) [1]: 0.7904

Compound: TRIMEPRAZINE TARTRATE
- pattern-specific score (PSS) [1]: 1
